{"source": "paper PMC9850959", "about": "(European journal of medicinal chemistry, 2019)", "key": {"[1]": {"test_system": "AP, choline oxidase, and horseradish peroxidase", "test": "counter screen assay without nSMase2 and sphingomyelin, with phosphorylcholine", "format": "biochemical"}, "[2]": {"biological_target": "T1, human nSMase2 (Homo sapiens, UniProt Q9NY59)", "T1 sequence (Q9NY59 1-655)": "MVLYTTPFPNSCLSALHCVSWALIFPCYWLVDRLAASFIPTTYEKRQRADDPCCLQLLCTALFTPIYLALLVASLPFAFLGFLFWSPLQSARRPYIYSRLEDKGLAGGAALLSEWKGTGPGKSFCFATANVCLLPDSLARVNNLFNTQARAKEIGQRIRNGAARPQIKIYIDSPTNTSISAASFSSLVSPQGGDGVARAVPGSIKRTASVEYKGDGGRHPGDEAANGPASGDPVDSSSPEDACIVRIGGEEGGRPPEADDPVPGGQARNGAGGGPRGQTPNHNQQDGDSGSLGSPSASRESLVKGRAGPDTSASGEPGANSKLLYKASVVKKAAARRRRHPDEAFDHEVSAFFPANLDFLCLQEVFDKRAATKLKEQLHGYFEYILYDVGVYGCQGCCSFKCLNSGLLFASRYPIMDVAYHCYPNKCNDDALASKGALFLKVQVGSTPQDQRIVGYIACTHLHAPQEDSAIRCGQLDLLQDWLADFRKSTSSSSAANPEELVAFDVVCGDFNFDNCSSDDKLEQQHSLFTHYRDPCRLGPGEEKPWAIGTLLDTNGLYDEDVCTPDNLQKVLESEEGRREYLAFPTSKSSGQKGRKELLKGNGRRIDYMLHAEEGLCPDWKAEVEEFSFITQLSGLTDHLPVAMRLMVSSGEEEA", "test": "fluorescence-based coupled nSMase2 assay", "format": "biochemical", "settings": "for nSMase2 inhibitory activity (in words): compared with DPTIP or parent analog"}, "[3]": {"settings": "cited from earlier work"}, "[4]": {"settings": "cited from earlier work", "remark": "listed apart in the source"}, "[5]": {"test": "glucuronidation stability in mouse liver microsomes in the presence of UDPGA", "format": "in vitro ADME"}, "[6]": {"test_system": "nSMase2", "settings": "with respect to sphingomyelin; cited from earlier work"}, "[7]": {"test": "phase I metabolic stability in mouse liver microsomes", "format": "in vitro ADME"}, "[8]": {"test_system": "primary astrocyte cultures", "settings": "cited from earlier work"}, "[9]": {"test_system": "IL-1β-induced astrocyte-derived extracellular vesicle release", "settings": "GFAP-GFP mice, brain injury model; cited from earlier work"}, "[10]": {"test": "phase I metabolic stability in human liver microsomes", "format": "in vitro ADME"}, "[11]": {"test": "oral pharmacokinetics in mice", "format": "in vivo"}}, "note": "Entries after “also recorded” stand apart in the source; their conditions may differ. Where a name gives a salt, the structure may show the parent alone."}
{"molecule": "Oc1cc(-c2nc(-c3ccccc3)c(-c3cccs3)[nH]2)cc(O)c1O", "note": "[Compound 6d, 5-(4-Phenyl-5-(thiophen-2-yl)-1H-imidazol-2-yl)benzene-1,2,3-triol]", "values": [{"measurement": "inhibition in the counter assay (in words)", "setting": "[1]", "value": "potent inhibition"}]}
{"molecule": "Oc1cccc(-c2nc(-c3ccccc3)c(-c3cccs3)[nH]2)c1", "note": "[Compound 6j]", "values": [{"measurement": "nSMase2 inhibitory activity (in words)", "setting": "[2]", "value": "complete loss of potency"}]}
{"molecule": "Oc1c(Cl)cc(-c2nc(-c3ccccc3)c(-c3cccs3)[nH]2)cc1Cl", "note": "[Compound 6e, 2,6-Dichloro-4-(4-phenyl-5-(thiophen-2-yl)-1H-imidazol-2-yl)phenol]", "values": [{"measurement": "nSMase2 inhibitory activity (in words)", "setting": "[2]", "value": "complete loss of activity"}]}
{"molecule": "O=c1[nH]c(=S)[nH]c(-c2ccccc2)c1Cc1c(O)ccc2ccccc12", "note": "[Cambinol]", "values": [{"measurement": "metabolic stability (in words)", "setting": "[3]", "value": "metabolically unstable"}, {"measurement": "solubility compared to GW4869 (in words)", "setting": "[4]", "value": "better solubility compared to GW4869"}]}
{"molecule": "COc1cc(C2=NCCN2)cc(OC)c1O", "note": "[Compound 22, 4-(4,5-Dihydro-1H-imidazol-2-yl)-2,6-dimethoxyphenol hydrochloride]", "values": [{"measurement": "nSMase2 inhibitory activity (in words)", "setting": "[2]", "value": "complete loss of potency"}]}
{"molecule": "Oc1ccc(-c2nc(-c3ccccc3)c(-c3cccs3)[nH]2)cc1", "note": "[Compound 6b, 4-(4-Phenyl-5-(thiophen-2-yl)-1H-imidazol-2-yl)phenol]", "values": [{"measurement": "inhibition in the counter assay (in words)", "setting": "[1]", "value": "no longer distinguishable"}, {"measurement": "loss of inhibitory potency relative to DPTIP", "setting": "[2]", "value": 100, "unit": "fold"}]}
{"molecule": "O=C(/C=C\\c1ccc(/C=C\\C(=O)Nc2ccc(C3=NCCN3)cc2)cc1)Nc1ccc(C2=NCCN2)cc1", "note": "[GW4869]", "values": [{"measurement": "aqueous solubility (in words)", "setting": "[4]", "value": "negligible aqueous solubility"}]}
{"molecule": "Oc1c(OC2CCCC2)cc(-c2nc(-c3ccccc3)c(-c3cccs3)[nH]2)cc1OC1CCCC1", "note": "[Compound 9c, 2,6-Bis(cyclopentyloxy)-4-(5-phenyl-4-(thiophen-2-yl)-1H-imidazol-2-yl)phenol]", "values": [{"measurement": "nSMase2 inhibitory activity (in words)", "setting": "[2]", "value": "decrease in potency"}]}
{"molecule": "COc1cc(-c2nc(-c3cccs3)c(-c3ccccc3)[nH]2)cc(OC)c1O", "note": "[DPTIP, 2,6-dimethoxy-4-[4-phenyl-5-(2-thienyl)-1H-imidazol-2-yl]phenol]", "values": [{"measurement": "loss of the parent compound", "setting": "[5]; mouse liver microsomes, UDPGA, 1 h", "value": 33, "unit": "%"}, {"measurement": "mechanism of inhibition", "setting": "[6]", "value": "noncompetitive"}, {"measurement": "phase I metabolic stability (in words)", "setting": "[7]", "value": "stable"}, {"measurement": "extracellular vesicle release (in words)", "setting": "[8]", "value": "dose-dependently inhibit extracellular vesicle release"}, {"measurement": "IL-1β-induced astrocyte-derived extracellular vesicle release (in words)", "setting": "[9]", "value": "attenuate"}, {"measurement": "phase I metabolic stability (in words)", "setting": "[10]", "value": "stable"}]}
{"molecule": "Oc1c(OCC(F)(F)F)cc(-c2nc(-c3ccccc3)c(-c3cccs3)[nH]2)cc1OCC(F)(F)F", "note": "[Compound 12, 4-(4-Phenyl-5-(thiophen-2-yl)-1H-imidazol-2-yl)-2,6-bis(2,2,2-trifluoroethoxy)phenol]", "values": [{"measurement": "phase I metabolic stability (in words)", "setting": "[7]", "value": "metabolic stability was completely regained"}, {"measurement": "phase I metabolic stability (in words)", "setting": "[10]", "value": "metabolic stability was completely regained"}]}
{"molecule": "COc1cc(-c2nc(-c3ccccc3)c(-c3cccs3)[nH]2)cc(OC)c1OC", "note": "[Compound 6g]", "values": [{"measurement": "nSMase2 inhibitory activity (in words)", "setting": "[2]", "value": "completely inactive"}]}
{"molecule": "COc1cc(-c2nc(-c3ccccc3)c(-c3cccs3)[nH]2)cc(O)c1O", "note": "[Compound 6c, 3-Methoxy-5-(4-phenyl-5-(thiophen-2-yl)-1H-imidazol-2-yl)benzene-1,2-diol]", "values": [{"measurement": "inhibition in the counter assay (in words)", "setting": "[1]", "value": "potent inhibition"}]}
{"molecule": "COc1cc(-c2ncc[nH]2)cc(OC)c1O", "note": "[Compound 3a, 4-(1H-Imidazol-2-yl)-2,6-dimethoxyphenol]", "values": [{"measurement": "loss of inhibitory potency relative to DPTIP", "setting": "[2]", "value": 10, "unit": "fold"}]}
{"molecule": "CC(C)Oc1cc(-c2nc(-c3ccccc3)c(-c3cccs3)[nH]2)cc(OC(C)C)c1O", "note": "[Compound 9b, 2,6-Diisopropoxy-4-(4-phenyl-5-(thiophen-2-yl)-1H-imidazol-2-yl)phenol]", "values": [{"measurement": "resistance to glucuronidation (in words)", "setting": "[5]; mouse liver microsomes, UDPGA", "value": "completely resistant to glucuronidation; also recorded: complete resistance to glucuronidation"}]}
{"molecule": "CC(C)(C)Oc1cc(-c2nc(-c3ccccc3)c(-c3cccs3)[nH]2)cc(OC(C)(C)C)c1O", "note": "[Compound 16, 2,6-Di-t-butoxy-4-(4-phenyl-5-(thiophen-2-yl)-1H-imidazol-2-yl)phenol]", "values": [{"measurement": "nSMase2 inhibitory activity (in words)", "setting": "[2]", "value": "decrease in potency"}]}
{"molecule": "Oc1ccccc1-c1nc(-c2ccccc2)c(-c2cccs2)[nH]1", "note": "[Compound 6i]", "values": [{"measurement": "nSMase2 inhibitory activity (in words)", "setting": "[2]", "value": "complete loss of potency"}]}
{"molecule": "COc1cc(-c2nccs2)cc(OC)c1O", "note": "[Compound 19, 2,6-Dimethoxy-4-(thiazol-2-yl)phenol]", "values": [{"measurement": "nSMase2 inhibitory activity (in words)", "setting": "[2]", "value": "substantial decrease in potency"}]}
{"molecule": "COc1cc(-c2nc(C(C)C)c(C(C)C)[nH]2)cc(OC)c1O", "note": "[Compound 25b, 4-(4,5-Diisopropyl-1H-imidazol-2-yl)-2,6-dimethoxyphenol hydrochloride]", "values": [{"measurement": "remaining at 1 h", "setting": "[5]; mouse, liver microsomes, pH 7.5", "value": "< 20", "unit": "%"}, {"measurement": "major metabolite in plasma", "setting": "[11]; mouse plasma after oral administration", "value": "glucuronide"}, {"measurement": "plasma exposure compared to DPTIP (in words)", "setting": "[11]; oral administration, mice", "value": "higher plasma exposure; also recorded: superior plasma pharmacokinetics"}, {"measurement": "CNS penetration (in words)", "setting": "[11]; oral, mice", "value": "negligible CNS penetration"}, {"measurement": "phase I metabolic stability (in words)", "setting": "[7]", "value": "metabolically stable"}, {"measurement": "phase I metabolic stability (in words)", "setting": "[10]", "value": "metabolically stable"}]}
